Reference: patent publication US10328063B2, “Method of wound healing” (CONNEXIOS LIFE SCIENCES PVT. LTD, priority 2015, dated 2019)

Tests used:
[1] = tested on: excision wound in db/db mice; assay: Excision wound model in db/db mice (wound contraction); assay type: in vivo; conditions: for Wound contraction profile in db/db mice: 0.5% cream topical twice a day, Mean ± SEM
Procedure: (§1) db/db Mice (from JAX lab) on chow diet were weighed and randomly allocated into different groups such as db/db cream base control and db/db+0.5% CNX-010-640 cream.
(§2) Mice were anaesthetized using ketamine and xylazine, hair was trimmed off and a circular excision of 20 mm^2 size was made on the dorsal neck region. CNX-010-640 cream was applied topically, twice a day. The degree of protection for wound remodeling was assessed by measuring wound contraction and period of epithelialisation. Wound contraction was measured on alternate days by tracing the raw wound area on graph paper carried by butter paper. Scar residue and time for completion of epithelialisation was measured. Results are shown in FIGS. 2 and 3, and Tables 1 to 3. On the termination day animals were euthanized and tissue samples containing wound was collected to study histopathological changes (as shown in FIGS. 6 to 11) and gene expression profiles were determined (FIGS. 12 to 17).

[2] = tested on: incision wound in db/db mice; assay: Incision wound model in db/db mice (tensile strength); assay type: in vivo; conditions: diabetic db/db mice
Procedure: as §1
(§3) [6] Mice were anaesthetized using ketamine and xylazine, hair was trimmed off and a longitudinal incision of 4 to 5 cm length was made on the back and stitched with thread. CNX-010-640 cream was applied topically, twice a day. The degree of protection for wound remodeling was assessed by measuring tensile strength and collagen content of skin at the healed wound site. Wound tensile strength was measured after 14 days of treatment.

[3] = tested on: excision wound in Swiss albino mice; assay: Excision wound model in Swiss albino mice (wound contraction); assay type: in vivo; conditions: for Wound contraction profile in SAM: 0.5% cream topical twice a day, Mean ± SEM
Source text: (§4) After an acclimatization period, C57 animals on the HFD were weighed and randomly allocated into different groups such as HFD cream base control and HFD+0.5% CNX-010-640 cream. C57 animals on a lean chow diet (Cream base) were also used as a control. Swiss albino mice on a lean chow diet (excision experiments only) were randomized into cream base control and 0.5% CNX-010-640 cream.
as §2

[4] = tested on: Human Dermal Fibroblast cells (HDF); assay: In vitro scratch assay; assay type: cell-based; conditions: 400 nM cortisone with 1 μM test molecule, 24 h
Procedure: Human Dermal Fibroblast cells (HDF) cells were seeded in 24 well plates (25000 cells/mL) in 1 mL of growth media (Media-106, Gibco) and allowed to grow for 24 h at 37° C. and 5% CO2. A small linear scratch was created in the confluent monolayer by gently scraping with sterile p200 pipette tips (care was taken during scratching process to ensure universal size and distant was made for all samples). Cells were extensively rinsed with PBS to remove cellular debris before adding the media with different treatment solutions (400 nM cortisone with or without 1 μM of test molecule according to Formula (I)). After 24 h, images of migrated cells were taken using a digital camera connected to inverted microscope to observe the closure of wound area. Scratch assays were performed in quadruplicate.

[5] = tested on: incision wound in diet induced obese C57 mice; assay: Incision wound model in HFD fed C57 mice (tensile strength, collagen content); assay type: in vivo; conditions: diabetic C57 mice
Source text: as §4, §3

[6] = tested on: excision wound in diet induced obese C57 mice; assay: Excision wound model in HFD fed C57 mice (wound contraction, histopathology); assay type: in vivo; conditions: for Wound contraction profile in C57 mice: HFD, 0.5% cream topical twice a day, Mean ± SEM
Source text: as §4, §2
[7] All the values are expressed as Mean±SEM, one way analysis of variance was performed followed by Dunnets' test for establishing the significance value of the treatment groups when compared with the HFD control.

[7] = tested on: markers of inflammation at the wound area; assay: Ex vivo gene expression profile from excision wound model; assay type: in vivo; conditions: HFD C57BL/6 mice, after one week of compound treatment, skin near wound
Source text: [13] […] The db/db control group wounds were not healed within this time. Furthermore, the size of wound of these control groups at the end of the experiment period (day 12) was achieved by the CNX-010-640 treated mice after only 8 days of treatment. […] [16] […] [17] Additionally, the degree of polymorphonuclear cell infiltration (indicative of inflammatory phase) was greater in the G2 group compared to the G3 group (compare FIGS. 6 and 7). From these microscopic observations it can be concluded that the treatment with 0.5% CNX-010-640 hastened the healing process, as it facilitated an early advancement into the proliferative phase in animals treated with CNX-010-640 (G3 group) of this study. Thus CNX-010-640 cream, when applied topically b.i.d, in excision and incision wound healing model on HFD background animals and normal SAM mice, enhanced the healing process in comparison with normal healing and VersaPro control. […] Gene expression was measured using SYBR Green PCR Master Mix (Eurogenetic, Belgium) and relative levels of expression were quantified (see FIGS. 12 to 17). From this, it is apparent that compound treatment has reduced the markers of inflammation at the wound area, as measured by gene expression. […]

[8] = HFD C57 mice, 0.5% cream, excision wound
[9] = diabetes-induced C57 mice, excision

SMILES: CC(CC(=O)N1C2CC3CC1CC(O)(C3)C2)c1c[nH]c2ccc(Cl)c(Cl)c12 (stereo not drawn) [CNX-010-640, 3-(4,5-Dichloro-1H-indol-3-yl)-1-(5-hydroxy-2-azatricyclo[3.3.1.1^3,7]dec-2-yl)butan-1-one]
- Wound contraction profile in db/db mice ([1]; Day 0): 17.10 ± 0.69 mm^2
- Wound contraction profile in db/db mice ([1]; Day 2): 23.80 ± 0.87 mm^2
- Wound contraction profile in db/db mice ([1]; Day 4): 14.40 ± 0.91 mm^2
- Wound contraction profile in db/db mice ([1]; Day 6): 11.40 ± 0.48 mm^2
- Wound contraction profile in db/db mice ([1]; Day 8): 8.20 ± 0.42 mm^2
- Wound contraction profile in db/db mice ([1]; Day 10): 5.00 ± 0.47 mm^2
- Wound contraction profile in db/db mice ([1]; Day 12): 2.20 ± 0.42 mm^2
- Wound contraction profile in db/db mice ([1]; Day 16): 0.30 ± 0.21 mm^2
- days of treatment to reach the wound size of the control group at day 12 ([1]; db/db mice, excision): 8 days
- time to complete healing of the wound ([1]; diabetic db/db mice, excision): 16 days
- improvement of tensile strength of skin at the incision site compared with control formulation [2]: up to 18%
- Wound contraction profile in SAM ([3]; Day 0): 22.77 ± 1.38 mm^2
- Wound contraction profile in SAM ([3]; Day 2): 15.00 ± 2.18 mm^2
- Wound contraction profile in SAM ([3]; Day 4): 14.33 ± 2.62 mm^2
- Wound contraction profile in SAM ([3]; Day 6): 10.44 ± 2.80 mm^2
- Wound contraction profile in SAM ([3]; Day 8): 3.20 ± 1.46 mm^2
- Wound contraction profile in SAM ([3]; Day 10): 1.00 ± 0.54 mm^2
- Wound contraction profile in SAM ([3]; Day 12): 0.600 ± 0.600 mm^2
- days of treatment to reach the wound size of the control group at day 12 ([3]; Swiss albino mice, excision): 6 days
- time to complete healing of the wound ([3]; non-diabetic Swiss albino mice, excision): 12 days
- closure of wound area (wound healing properties, image analysis) [4]: good wound healing properties
- improvement of tensile strength of skin at the incision site compared with control formulation ([5]; after 14 days of treatment): up to 38%
- collagen content, as estimated by measurement of hydroxyproline, compared with controls ([5]; incision): greater
- Wound contraction profile in C57 mice ([6]; Day 0): 25.10 ± 1.40 mm^2
- Wound contraction profile in C57 mice ([6]; Day 2): 15.80 ± 1.77 mm^2
- Wound contraction profile in C57 mice ([6]; Day 4): 17.90 ± 1.92 mm^2
- Wound contraction profile in C57 mice ([6]; Day 6): 9.40 ± 1.42 mm^2
- Wound contraction profile in C57 mice ([6]; Day 8): 5.60 ± 1.47 mm^2
- Wound contraction profile in C57 mice ([6]; Day 10): 4.00 ± 1.41 mm^2
- Wound contraction profile in C57 mice ([6]; Day 12): 0.25 ± 0.25 mm^2
- degree of collagen deposition (histopathology) in comparison with HFD+VersaPro control [6, 8]: higher degree
- degree of fibroblast proliferation (histopathology) in comparison with HFD+VersaPro control [6, 8]: higher degree
- days of treatment to reach the wound size of the control group at day 12 [6, 9]: 6 days
- time to complete healing of the wound [6, 9]: 12 days
- degree of polymorphonuclear cell infiltration (histopathology) ([6]; diabetes-induced mouse, VersaPro cream with 0.5% compound, excision wound): mild
- markers of inflammation at the wound area, as measured by gene expression [7]: reduced
